From ChEMBL document CHEMBL1127765, “16-propyl derivatives of estradiol as inhibitors of 17-hydroxysteroid dehydrogenase type 1” (Bioorg Med Chem Lett, 1994) come the findings set out here.

Structures are written as SMILES.

Assay [1] deals with T1, 17-beta-hydroxysteroid dehydrogenase type 1 (Homo sapiens, UniProt P14061).
T1 sequence (P14061 whole entry): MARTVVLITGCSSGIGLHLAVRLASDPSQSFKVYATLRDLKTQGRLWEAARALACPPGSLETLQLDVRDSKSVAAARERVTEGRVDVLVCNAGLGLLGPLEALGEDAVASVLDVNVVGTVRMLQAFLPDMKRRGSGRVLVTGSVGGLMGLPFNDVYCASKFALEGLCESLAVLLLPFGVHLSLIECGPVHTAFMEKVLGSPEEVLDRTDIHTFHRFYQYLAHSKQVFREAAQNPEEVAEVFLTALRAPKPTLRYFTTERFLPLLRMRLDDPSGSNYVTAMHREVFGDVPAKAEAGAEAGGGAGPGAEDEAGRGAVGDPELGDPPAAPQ
The assay is described as follows: Compound was tested for the inhibition of 17-beta-hydroxysteroid dehydrogenase type 1(17-beta-HSD type 1).

The target in assay [2] is T2, 17-beta-hydroxysteroid dehydrogenase type 1 (Homo sapiens) (UniProt P14061).
T2 sequence (whole entry): T1 sequence (P14061 whole entry)
Description: Compound was tested for the inhibition of 17-beta-hydroxysteroid dehydrogenase type 1(17-beta-HSD type 1) at 1 uM concentration.

The target of assay [3] is T2, 17-beta-hydroxysteroid dehydrogenase type 1 (Homo sapiens). Description: Compound was tested for the inhibition of 17-beta-hydroxysteroid dehydrogenase type 1(17-beta-HSD type 1) at 10 uM concentration.

As a reminder, the IC50 is the midpoint of a concentration-inhibition curve. The low end stands for inhibition by little substance, the high end for a need for much substance. Broadly, the inhibition is the drop in the measured response relative to a control, in per cent. Lower therefore signals a response near the control.

`C[C@]12CC[C@@H]3c4ccc(O)cc4CC[C@H]3[C@@H]1C[C@@H](CCCBr)[C@@H]2O` came in with an IC50 in assay [1] of 460 nM. The values for the inhibition in assay [2] and in assay [3] were 70% and 94%, respectively.

Regarding `CCC[C@@H]1C[C@H]2[C@@H]3CCc4cc(O)ccc4[C@H]3CC[C@]2(C)[C@H]1O`, the inhibition in assay [2] turned out to be 29%; in assay [3] it was 69%.

`C[C@]12CC[C@@H]3c4ccc(O)cc4CC[C@H]3[C@@H]1C[C@@H](CCCO)[C@@H]2O`: the inhibition in assay [2] turned out to be 17%; in assay [3], 57%.

For `C[C@]12CC[C@@H]3c4ccc(O)cc4CC[C@H]3[C@@H]1C[C@@H](CCCF)[C@@H]2O`, the IC50 in assay [1] stood at 4300 nM. For the same compound, the inhibition in assay [2] was found to be 49%; in assay [3] it was 81%.

`C[C@]12CC[C@@H]3c4ccc(O)cc4CC[C@H]3[C@@H]1C[C@@H](CCCCl)[C@@H]2O` showed an IC50 in assay [1] of 1000 nM. Also, the inhibition in assay [2] came to 88%; in assay [3], 92%.

As for `C[C@]12CC[C@@H]3c4ccc(O)cc4CC[C@H]3[C@@H]1C[C@@H](CCCSC#N)[C@@H]2O`, the IC50 in assay [1] came to 1150 nM. In addition, the values for the inhibition in assay [2] and in assay [3] were 82% and 95%, respectively.

For `C[C@]12CC[C@@H]3c4ccc(O)cc4CC[C@H]3[C@@H]1C[C@@H](CCCI)[C@@H]2O`, the IC50 in assay [1] was 420 nM. Moreover, the inhibition in assay [2] is 68%; in assay [3], 92%.

With `C=CC[C@@H]1C[C@H]2[C@@H]3CCc4cc(O)ccc4[C@H]3CC[C@]2(C)[C@H]1O`, the inhibition in assay [2] came out at 26%; in assay [3], 63%.
